From ChEMBL document CHEMBL2046386, “Potent and selective aminopyrimidine-based B-Raf inhibitors with favorable physicochemical and pharmacokinetic properties” (J Med Chem, 2012)
Values after ≈ are worked out from the molar mass of the structure shown.

How the values were obtained:
[1] = molecular target: T1, Serine/threonine-protein kinase B-raf (Homo sapiens, UniProt P15056, V600E); assay: Inhibition of B-raf V600E mutant-mediated Erk phosphorylation in human MALM-3M cells by fluorometric analysis; type: cell-based
[2] = molecular target: T1, Serine/threonine-protein kinase B-raf; assay: Inhibition of His6X-tagged human B-raf V600E mutant expressed in baculovirus infected insect cells coexpressing […] using [gamma33P]ATP after 60 mins by scintillation counting
[3] = Thermodynamic solubility of the compound at 0.5 mg/ml after 24 hrs by shake flask method at pH 1.2; type: physicochemical; conditions: buffer, read-out: Therm_solubility
[4] = Lipophilicity, log P of the compound; type: physicochemical; conditions: octanol/water
[5] = Dissociation constant, pKa of the compound at basic pH; type: physicochemical
[6] = AUC in mouse at 30 mg/kg, po dosed in 0.5% methylcellulose/0.2% Tween 80/99.3% water; type: ADME, organism-based; parameters: dose 30 mg/kg, route oral; conditions: in vivo
[7] = Plasma protein binding in mouse; type: ADME, cell-free; conditions: read-out: PPB (converted)
[8] = Thermodynamic solubility of the compound at 0.5 mg/ml after 24 hrs by shake flask method at pH 6.5; type: physicochemical; conditions: buffer, read-out: Therm_solubility
[9] = Clearance in mouse at 2.5 mg/kg, iv; type: ADME, organism-based; parameters: dose 2.5 mg/kg, route intravenous; conditions: in vivo
[10] = AUC in mouse at 30 mg/kg, po dosed as as solution; type: ADME, organism-based; parameters: dose 30 mg/kg, route oral; conditions: plasma
[11] = Volume of distribution at steady state in mouse at 2.5 mg/kg, iv; type: ADME, organism-based; parameters: dose 2.5 mg/kg, route intravenous; conditions: in vivo, read-out: Vdss
[12] = Oral bioavailability in mouse at 30 mg/kg; type: ADME, organism-based; conditions: in vivo
[13] = Dissociation constant, pKa of the compound at acidic pH; type: physicochemical
HT-29 = assay: Antiproliferative activity against human HT-29 cells expressing B-raf V600E mutant and high level of EGFR; type: functional, cell-based
COLO 205 [14] = assay: Antiproliferative activity against human COLO205 cells expressing B-raf V600E mutant; type: functional, cell-based
[15] = AUC in rat at 25 mg/kg, po dosed as crystalline suspension in 20%HPBCD vehicle (20% hydroxypropyl-beta-cyclodextrin/80% water); type: ADME, organism-based; parameters: dose 25 mg/kg, route oral; conditions: plasma
[16] = Inhibition of cytochrome P450; type: ADME
Homo sapiens [17] = species on record: Homo sapiens; assay: Selectivity index, ratio of IC50 for wild-type B-raf to IC50 for human Braf V600E mutant
[18] = Oral bioavailability in mouse at 10 mg/kg dosed as crystalline suspension in 20%HPBCD vehicle (20% hydroxypropyl-beta-cyclodextrin/80% water); type: ADME, organism-based; conditions: in vivo
[19] = Oral bioavailability in mouse at 1 mg/kg dosed as crystalline suspension in 20%HPBCD vehicle (20% hydroxypropyl-beta-cyclodextrin/80% water); type: ADME, organism-based; conditions: in vivo
[20] = Antiproliferative activity against human A375.X1 cells expressing B-raf V600E mutant; type: functional, cell-based
[21] = Oral bioavailability in mouse at 30 mg/kg dosed as crystalline suspension in 20%HPBCD vehicle (20% hydroxypropyl-beta-cyclodextrin/80% water); type: ADME, organism-based; conditions: in vivo
[22] = Clearance in rat at 1 mg/kg, iv dosed as crystalline suspension in 20%HPBCD vehicle (20% hydroxypropyl-beta-cyclodextrin/80% water); type: ADME, organism-based; parameters: dose 1 mg/kg, route intravenous; conditions: in vivo
[23] = Time-dependent inhibition of cytochrome P450; type: ADME
[24] = Cmax in mouse at 30 mg/kg, po dosed as crystalline suspension in 20%HPBCD vehicle (20% hydroxypropyl-beta-cyclodextrin/80% water); type: ADME, organism-based; parameters: dose 30 mg/kg, route oral; conditions: in vivo
[25] = AUC in mouse at 50 mg/kg, po dosed as crystalline suspension in 20%HPBCD vehicle (20% hydroxypropyl-beta-cyclodextrin/80% water); type: ADME, organism-based; parameters: dose 50 mg/kg, route oral; conditions: plasma
[26] = Cmax in rat at 5 mg/kg, po dosed as crystalline suspension in 20%HPBCD vehicle (20% hydroxypropyl-beta-cyclodextrin/80% water); type: ADME, organism-based; parameters: dose 5 mg/kg, route oral; conditions: in vivo
Salmonella typhimurium = assay: Induction of mutagenesis in Salmonella typhimurium by Ames test; type: toxicity, organism-based; conditions: salmonella enterica subsp. enterica serovar typhimurium
NCI-H226 = assay: Antiproliferative activity against human NCI-H226 cells expressing wild-type B-raf; type: functional, cell-based
[27] = Cmax in rat at 25 mg/kg, po dosed as crystalline suspension in 20%HPBCD vehicle (20% hydroxypropyl-beta-cyclodextrin/80% water); type: ADME, organism-based; parameters: dose 25 mg/kg, route oral; conditions: in vivo
[28] = molecular target: Voltage-gated inwardly rectifying potassium channel KCNH2 (Homo sapiens, UniProt Q12809); assay: Inhibition of human Erg
Homo sapiens [29] = species on record: Homo sapiens; assay: Selectivity index, ratio of IC50 for wild-type C-raf to IC50 for human Braf V600E mutant
Cytochrome P450 2C9 = Cytochrome P450 2C9 (Homo sapiens, UniProt P11712); assay: Inhibition of CYP2C9; type: ADME
[30] = molecular target: Serine/threonine-protein kinase B-raf (Homo sapiens, UniProt P15056); assay: Inhibition of wild type B-raf in presence of 1 mM ATP
[31] = Cmax in mouse at 50 mg/kg, po dosed as crystalline suspension in 20%HPBCD vehicle (20% hydroxypropyl-beta-cyclodextrin/80% water); type: ADME, organism-based; parameters: dose 50 mg/kg, route oral; conditions: in vivo
[32] = Oral bioavailability in rat at 25 mg/kg dosed as crystalline suspension in 20%HPBCD vehicle (20% hydroxypropyl-beta-cyclodextrin/80% water); type: ADME, organism-based; conditions: in vivo
Mus musculus = assay: Toxicity in NCr nude mouse xenografted with human COLO205 cells expressing B-raf V600E mutant assessed as adverse effects; type: organism-based, COLO 205; conditions: in vivo
RKO = assay: Antiproliferative activity against PTEN-deficient human RKO cells expressing B-raf V600E mutant and high level of EGFR; type: functional, cell-based
[33] = Oral bioavailability in mouse at 30 mg/kg dosed as crystalline suspension in 20%HPBCD vehicle (20% hydroxypropyl-beta-cyclodextrin/80% water); conditions: in vivo
[34] = Volume of distribution at steady state in rat at 1 mg/kg, iv dosed as crystalline suspension in 20%HPBCD vehicle (20% hydroxypropyl-beta-cyclodextrin/80% water); type: ADME, organism-based; parameters: dose 1 mg/kg, route intravenous; conditions: in vivo, read-out: Vdss
[35] = molecular target: RAF proto-oncogene serine/threonine-protein kinase (Homo sapiens, UniProt P04049); assay: Inhibition of wild type C-raf in presence of 1 mM ATP
[36] = AUC in mouse at 1 mg/kg, po dosed as crystalline suspension in 20%HPBCD vehicle (20% hydroxypropyl-beta-cyclodextrin/80% water); type: ADME, organism-based; parameters: dose 1 mg/kg, route oral; conditions: plasma
[37] = AUC in rat at 5 mg/kg, po dosed as crystalline suspension in 20%HPBCD vehicle (20% hydroxypropyl-beta-cyclodextrin/80% water); type: ADME, organism-based; parameters: dose 5 mg/kg, route oral; conditions: plasma
[38] = Oral bioavailability in rat at 5 mg/kg dosed as crystalline suspension in 20%HPBCD vehicle (20% hydroxypropyl-beta-cyclodextrin/80% water); type: ADME, organism-based; conditions: in vivo
[39] = AUC in mouse at 10 mg/kg, po dosed as crystalline suspension in 20%HPBCD vehicle (20% hydroxypropyl-beta-cyclodextrin/80% water); type: ADME, organism-based; parameters: dose 10 mg/kg, route oral; conditions: plasma
COLO 205 [40] = assay: Antitumor activity against human COLO205 cells expressing B-raf V600E mutant xenografted in po dosed NCr nude mouse assessed as decrease in tumor volume administered once daily for 21 days measured twice a week up to 21 days; type: functional
[41] = Cmax in mouse at 10 mg/kg, po dosed as crystalline suspension in 20%HPBCD vehicle (20% hydroxypropyl-beta-cyclodextrin/80% water); type: ADME, organism-based; parameters: dose 10 mg/kg, route oral; conditions: in vivo
[42] = AUC in mouse at 30 mg/kg, po dosed as crystalline suspension in 20%HPBCD vehicle (20% hydroxypropyl-beta-cyclodextrin/80% water); type: ADME, organism-based; parameters: dose 30 mg/kg, route oral; conditions: plasma
[43] = molecular target: T1, Serine/threonine-protein kinase B-raf; assay: Inhibition of His6X-tagged human B-raf V600E mutant expressed in baculovirus infected insect cells coexpressing […] using [gamma33P]ATP after 60 mins by scintillation counting in presence of 1 mM ATP
[44] = Cmax in mouse at 1 mg/kg, po dosed as crystalline suspension in 20%HPBCD vehicle (20% hydroxypropyl-beta-cyclodextrin/80% water); type: ADME, organism-based; parameters: dose 1 mg/kg, route oral; conditions: in vivo
[45] = Mus musculus, COLO 205, po, 504 h

T1 sequence (P15056 2-766 V600E limits assumed): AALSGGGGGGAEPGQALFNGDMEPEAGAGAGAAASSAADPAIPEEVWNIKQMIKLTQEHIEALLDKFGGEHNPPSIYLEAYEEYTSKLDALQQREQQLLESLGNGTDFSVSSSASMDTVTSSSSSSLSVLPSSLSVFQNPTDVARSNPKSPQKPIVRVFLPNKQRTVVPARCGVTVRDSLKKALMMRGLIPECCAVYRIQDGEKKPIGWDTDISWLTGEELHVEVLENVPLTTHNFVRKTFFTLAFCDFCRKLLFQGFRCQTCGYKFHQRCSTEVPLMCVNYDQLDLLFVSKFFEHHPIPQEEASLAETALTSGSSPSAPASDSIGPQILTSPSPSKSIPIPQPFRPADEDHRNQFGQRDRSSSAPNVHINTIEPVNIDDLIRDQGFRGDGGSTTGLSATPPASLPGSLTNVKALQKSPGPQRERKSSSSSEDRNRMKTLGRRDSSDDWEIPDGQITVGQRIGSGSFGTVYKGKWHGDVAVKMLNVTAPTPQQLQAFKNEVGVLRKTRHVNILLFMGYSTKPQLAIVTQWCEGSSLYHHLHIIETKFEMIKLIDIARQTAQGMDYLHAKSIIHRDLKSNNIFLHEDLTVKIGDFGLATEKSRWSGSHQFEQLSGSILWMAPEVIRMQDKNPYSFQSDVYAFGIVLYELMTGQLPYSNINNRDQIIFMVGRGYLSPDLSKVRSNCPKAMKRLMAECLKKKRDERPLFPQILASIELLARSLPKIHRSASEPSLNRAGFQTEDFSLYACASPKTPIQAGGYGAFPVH
Sequence of Serine/threonine-protein kinase B-raf (Homo sapiens, UniProt P15056) (P15056 whole entry): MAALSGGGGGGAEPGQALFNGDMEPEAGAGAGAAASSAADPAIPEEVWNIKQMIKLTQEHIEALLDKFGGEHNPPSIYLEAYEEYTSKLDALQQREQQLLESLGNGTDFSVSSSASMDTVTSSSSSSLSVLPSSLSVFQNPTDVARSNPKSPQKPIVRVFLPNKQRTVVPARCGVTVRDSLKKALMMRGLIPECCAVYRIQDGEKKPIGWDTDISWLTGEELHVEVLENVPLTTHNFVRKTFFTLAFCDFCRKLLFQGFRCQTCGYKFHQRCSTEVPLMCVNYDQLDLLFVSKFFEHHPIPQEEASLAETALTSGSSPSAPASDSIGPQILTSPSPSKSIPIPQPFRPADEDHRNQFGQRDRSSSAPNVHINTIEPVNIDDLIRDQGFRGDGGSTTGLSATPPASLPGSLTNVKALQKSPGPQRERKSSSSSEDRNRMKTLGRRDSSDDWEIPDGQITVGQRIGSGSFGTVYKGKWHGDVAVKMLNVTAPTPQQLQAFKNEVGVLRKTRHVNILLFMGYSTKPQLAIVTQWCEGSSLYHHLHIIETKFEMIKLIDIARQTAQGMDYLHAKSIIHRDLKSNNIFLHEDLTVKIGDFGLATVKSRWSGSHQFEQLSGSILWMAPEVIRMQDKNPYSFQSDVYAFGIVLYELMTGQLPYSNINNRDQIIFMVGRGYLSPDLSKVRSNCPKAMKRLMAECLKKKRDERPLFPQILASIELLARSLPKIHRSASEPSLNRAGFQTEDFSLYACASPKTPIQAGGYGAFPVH
Sequence of Cytochrome P450 2C9 (P11712 whole entry): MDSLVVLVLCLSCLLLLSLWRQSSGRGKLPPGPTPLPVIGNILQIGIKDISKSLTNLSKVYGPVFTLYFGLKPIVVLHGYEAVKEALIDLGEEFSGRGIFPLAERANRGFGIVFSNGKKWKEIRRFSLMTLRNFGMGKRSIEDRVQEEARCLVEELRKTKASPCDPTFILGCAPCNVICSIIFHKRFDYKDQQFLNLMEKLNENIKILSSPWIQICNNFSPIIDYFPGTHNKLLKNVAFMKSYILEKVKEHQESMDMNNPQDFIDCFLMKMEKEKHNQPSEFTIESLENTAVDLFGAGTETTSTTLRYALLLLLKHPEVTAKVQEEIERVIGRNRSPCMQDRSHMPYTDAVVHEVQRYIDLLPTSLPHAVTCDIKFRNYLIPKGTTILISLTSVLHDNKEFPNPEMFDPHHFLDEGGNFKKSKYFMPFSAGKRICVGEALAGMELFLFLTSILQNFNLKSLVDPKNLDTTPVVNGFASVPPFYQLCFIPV
Sequence of RAF proto-oncogene serine/threonine-protein kinase (P04049 whole entry): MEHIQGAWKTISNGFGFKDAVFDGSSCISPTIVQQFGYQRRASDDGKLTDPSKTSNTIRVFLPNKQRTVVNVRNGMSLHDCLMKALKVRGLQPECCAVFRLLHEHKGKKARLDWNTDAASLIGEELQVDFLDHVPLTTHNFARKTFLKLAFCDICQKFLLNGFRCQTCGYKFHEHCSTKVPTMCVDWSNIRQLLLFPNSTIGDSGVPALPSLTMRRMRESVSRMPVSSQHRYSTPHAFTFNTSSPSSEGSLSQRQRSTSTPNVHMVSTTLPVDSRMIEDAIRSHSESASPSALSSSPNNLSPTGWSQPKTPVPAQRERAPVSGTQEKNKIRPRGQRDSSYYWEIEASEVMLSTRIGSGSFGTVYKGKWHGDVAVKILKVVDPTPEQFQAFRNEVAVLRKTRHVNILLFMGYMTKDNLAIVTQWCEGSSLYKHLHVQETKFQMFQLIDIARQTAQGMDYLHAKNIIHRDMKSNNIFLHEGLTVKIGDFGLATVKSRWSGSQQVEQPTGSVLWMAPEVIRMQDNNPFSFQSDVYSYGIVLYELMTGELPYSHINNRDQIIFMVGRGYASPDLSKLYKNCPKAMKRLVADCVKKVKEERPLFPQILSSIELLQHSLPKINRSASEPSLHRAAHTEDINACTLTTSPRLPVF
Sequence of Voltage-gated inwardly rectifying potassium channel KCNH2 (Q12809 whole entry): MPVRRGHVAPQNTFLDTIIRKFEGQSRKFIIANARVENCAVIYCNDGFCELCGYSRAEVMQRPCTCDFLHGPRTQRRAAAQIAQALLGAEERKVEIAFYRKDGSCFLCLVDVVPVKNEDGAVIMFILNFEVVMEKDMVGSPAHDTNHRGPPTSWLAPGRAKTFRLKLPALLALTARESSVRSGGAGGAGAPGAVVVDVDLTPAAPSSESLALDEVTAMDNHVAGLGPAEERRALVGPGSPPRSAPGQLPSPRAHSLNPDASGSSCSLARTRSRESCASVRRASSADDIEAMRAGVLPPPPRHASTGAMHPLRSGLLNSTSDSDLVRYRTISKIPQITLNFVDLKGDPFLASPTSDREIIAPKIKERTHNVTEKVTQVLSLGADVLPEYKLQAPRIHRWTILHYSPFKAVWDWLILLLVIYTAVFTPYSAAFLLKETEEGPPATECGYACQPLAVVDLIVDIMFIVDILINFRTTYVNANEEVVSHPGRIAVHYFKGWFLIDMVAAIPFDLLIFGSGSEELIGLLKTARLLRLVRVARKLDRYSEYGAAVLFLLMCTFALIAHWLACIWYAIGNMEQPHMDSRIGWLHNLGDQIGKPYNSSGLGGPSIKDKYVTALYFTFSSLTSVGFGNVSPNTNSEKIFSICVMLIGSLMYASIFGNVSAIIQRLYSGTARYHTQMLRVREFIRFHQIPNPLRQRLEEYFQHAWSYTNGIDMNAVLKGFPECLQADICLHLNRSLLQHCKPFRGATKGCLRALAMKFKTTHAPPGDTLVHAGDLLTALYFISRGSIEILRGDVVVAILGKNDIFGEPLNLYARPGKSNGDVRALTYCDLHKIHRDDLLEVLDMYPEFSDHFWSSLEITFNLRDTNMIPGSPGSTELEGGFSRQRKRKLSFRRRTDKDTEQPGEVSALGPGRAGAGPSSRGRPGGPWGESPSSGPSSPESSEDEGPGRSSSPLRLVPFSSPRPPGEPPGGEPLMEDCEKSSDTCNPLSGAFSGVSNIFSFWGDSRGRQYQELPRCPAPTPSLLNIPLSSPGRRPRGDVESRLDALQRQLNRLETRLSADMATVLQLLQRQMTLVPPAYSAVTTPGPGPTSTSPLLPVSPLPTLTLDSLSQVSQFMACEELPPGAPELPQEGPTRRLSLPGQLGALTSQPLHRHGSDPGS

CCCS(=O)(=O)Nc1ccc(Cl)c(NC(=O)c2cccc3c(N)ncnc23)c1F
IC50 [1]: 9.5 nM | IC50 [2]: 0.59 nM

CCCS(=O)(=O)Nc1ccc(F)c(NC(=O)Nc2cc(NC)ncn2)c1F
solubility thermodynamic at 24 h [3]: 900 µg/mL (≈ 2250 µM) | IC50 [1]: 168 nM | IC50 [2]: 36 nM

Nc1ncnc2c(C(=O)Nc3c(Cl)ccc(NS(=O)(=O)CCCF)c3F)cccc12
IC50 [1]: 2.5 nM | IC50 [2]: 0.11 nM

CCCS(=O)(=O)Nc1ccc(F)c(NC(=O)c2cccc3c(N)ncnc23)c1F
logP [4]: 2.9 | solubility thermodynamic at 24 h [3]: > 1000 µg/mL | pKa [5]: 4.5 | AUC [6]: 290 µM·h | fraction unbound [7]: 0.015 | IC50 [1]: 9.5 nM | solubility thermodynamic at 24 h [8]: 1 µg/mL (≈ 2.37 µM) | clearance [9]: 2.5 mL/min/kg | AUC [10]: 331 µM·h | Vd [11]: 0.4 L/kg | bioavailability [12]: 71% | pKa [13]: 4.5 | IC50 [2]: 1.8 nM

CCCS(=O)(=O)Nc1ccc(F)c(NC(=O)Nc2cc(NCCO)ncn2)c1F
solubility thermodynamic at 24 h [3]: 900 µg/mL (≈ 2090 µM) | IC50 [1]: 3400 nM

CCCS(=O)(=O)Nc1ccc(F)c(NC(=O)c2csc3c(N)ncnc23)c1Cl
IC50 [1]: 15 nM | IC50 [2]: 1.1 nM

Nc1ncnc2c(C(=O)Nc3c(Cl)ccc(NS(=O)(=O)CCCF)c3F)csc12
EC50 (HT-29): 24 nM | EC50 (COLO 205 [14]): 5 nM | AUC [15]: 2970 µM·h | IC50 [16]: > 25000 nM | Ratio IC50 (Homo sapiens [17]): 11 | bioavailability [18]: > 100% | bioavailability [19]: > 100% | EC50 [20]: 2 nM | bioavailability [21]: > 100% | clearance [22]: 0.19 mL/min/kg | inhibition (INH) [23]: Not Active | logP [4]: 3.6 | Cmax [24]: 162 µM | solubility thermodynamic at 24 h [3]: 700 µg/mL (≈ 1520 µM) | pKa [5]: 3.6 | AUC [25]: 3250 µM·h | Cmax [26]: 44.5 µM | Activity (Salmonella typhimurium): Non-toxic | EC50 (NCI-H226): > 10000 nM | Cmax [27]: 201 µM | inhibition (INH) [28]: Not Active | Ratio IC50 (Homo sapiens [29]): 152 | IC50 (Cytochrome P450 2C9): 9000 nM | fraction unbound [7]: 0.03 | IC50 [1]: 4.6 nM | solubility thermodynamic at 24 h [8]: 10 µg/mL (≈ 21.6 µM) | clearance [9]: 0.79 mL/min/kg | IC50 [30]: 22 nM | Cmax [31]: 249 µM | bioavailability [32]: 62% | Activity (Mus musculus): Non-toxic | EC50 (RKO): 2310 nM | bioavailability [33]: > 100% | Vd [11]: 0.12 L/kg | Vd [34]: 0.14 L/kg | IC50 [35]: 73 nM | AUC [36]: 84 µM·h | AUC [37]: 651 µM·h | bioavailability [38]: 68% | AUC [39]: 867 µM·h | TGI (COLO 205 [40]): 130% | ED50 (COLO 205 [40]; [45]): 1.1 mg/kg | ED90 (COLO 205 [40]; [45]): 6.2 mg/kg | Cmax [41]: 73 µM | AUC [42]: 1680 µM·h | IC50 [43]: 2 nM | Cmax [44]: 7.93 µM | IC50 [2]: 0.18 nM

CCCS(=O)(=O)Nc1ccc(F)c(NC(=O)c2cccc3c(N)ncnc23)c1Cl
IC50 [1]: 7.7 nM | IC50 [2]: 0.54 nM
